# Results: US7067486B2, “Acetylcholinesterase-derived peptides and uses thereof” (priority 1999, dated 2006)
# Marks after values point to notes of the source that are not given here. Where no end group is shown, it is not given here.
# What was measured:
# [1] = system: FVB/N adult mice; assay: Biochemical and physiological male fertility correlates after ARP injection; type: in vivo, mouse
# Description: Culture Analyses: Twenty-four hr liquid cultures served for cytochemical staining, in situ hybridization, and cell proliferation assay by 5-bromo-2′-deoxy-Uridine (BrdU) incorporation [Grisaru et al. (1999b) id ibid.]. Twenty-eight day liquid cultures were sampled every 6–8 days for viable cell counting (using trypan blue dye exclusion), cell phenotyping (CD34^+, CD33^+ and CD41^+ quantification using flow cytometry, with CD34-PE, CD33-FITC (Immunotech/Coulter, Hialeah, Fla.), CD41-FITC (Immunoquality Products, Groningen, Netherlands) and CD45-FITC monoclonal antibodies), and growth of progenitor colony (granulocyte-macrophage and megakaryocytic), using previously described techniques (Pick et al. (1998) id ibid.). Cytochemical Staining: Staining of AChE activity was essentially as detailed elsewhere [Grisaru et al. (1999b) id ibid], on non-fixed liquid cultures following 300×g centrifugation on collagen-coated cover slips placed on the bottom of the culture well, in the presence of 10^−5 M iso-OMPA (ISO) or BW284C51 (BW), selective inhibitors of BuChE and AChE, respectively [see also Keymer et al.(1999) Eur. J. Neurosci. 11, 1049–57]. Nuclear staining w with 4′,6-diamidino-2- phenylindole [DAPI, see e.g., Peterson et al. (1999) Genetics 152, 427–439]. Animals and Tissue Collection: Male FVB/N mice (2–6 months old) were sacrificed 24 hr following 4 successive days of a forced swim session as detailed [Kaufer et al. (1998) id ibid.], or a single injection of ARP (34 nmol/kg weight), or phosphate buffer (PB) for control. ARP, a 26 amino acid residue peptide synthesized according to the C-terminal sequence of human AChE-R [Grisaru et al. (1999b) id ibid.] was HPLC purified and mass-spectrometry analysed for purity. Control naïve mice and hAChE-R transgenics were sacrificed with no prior treatment. Blood samples were allowed to clot 1 hr at room temperature and overnight at 4° C., followed by centrifugation and serum collection. Testes and seminal vesicles were excised and weighed, fixed in 4% paraformaldehyde or Bouin's fixative for histological staining or kept at −70° C. for protein extraction. Sperm cells were collected from one cauda epididymis shredded in 1 ml saline. Evaluation of Serum Corticosterone Levels: concentrations were determined by radioimmunoassay.
# Epididymal sperm motility was assessed by visually determining percent motile sperm. Sperm concentration was measured using the Makler chamber (company, city, state).
# Detection of the AChE core protein and/or its variant C-terminal peptides was performed on 7 μm thick paraffin embedded testis sections with either anti-ASP (C-16; Santa Cruz Biotechnology, Santa Cruz, Calif.) or anti-ARP polyclonal antibodies [Sternfeld et al. (2000) id ibid.]. PCNA was detected using a dedicated staining kit (Zymed Laboratories, San-Francisco, Calif.); nuclear staining and counterstaining was with DAPI and hematoxylin, respectively (Sigma, St. Louis Mo.).
# To determine the in vivo capacity of ARP to affect different biochemical and physiological male fertility properties, the effect of injection of ARP or chronic expression of AChE-R (AChE-R transgenic mice) on different parameters was examined.
# [2] = system: CD34^+ cells; assay: Cell phenotyping of CD34+ liquid cultures by flow cytometry (CD34, CD33, CD15, CD41); type: cell-based, human; details: for MK (CD41^+) fold expansion / Myeloid (CD33^+) fold expansion: 2-week primary cultures of CD34+ cells from 1 to 3 individuals, ± SEM where noted
# Description: Cell Source: UCB was collected, following informed consent of the parents and with the approval of the Sourasky Medical Center Ethics Committee, as previously described [Grisaru et al. (1999a) Am. J. Obstet. Gynecol, 180, 1240–1243]. Following 1:1 (v/v) dilution in Iscove's modified Dulbecco medium (IMDM, Beit Haemek, Israel), mononuclear cells were separated using 3% gelatin (Difco, Detroit, Mich.) and Ficoll-Hypaque gradients (<1.077 g/ml; Pharmacia, Uppsala, Sweden) [Pick et al. (1998) Br. J. Haematol. 103, 639–50]. CD34^+ cells were enriched using CD34 immunoglobulin-coated magnetic beads (CD34 progenitor cell selection system, Dynal, Norway).CD34^+ cells analysis was performed by flow cytometry (Becton Dickinson Immunocytochemistry System Inc., San Jose, Calif.), using CD34-PE (Becton Dickinson Immunocytometry System, Inc.) and CD45-FITC (Dako, Glostrup, Denmark) monoclonal antibodies. […] Liquid Cultures: UCB CD34^+ cells were set for liquid cultures at a concentration of 10^5/mL in IMDM, containing 10% autologous plasma, 2 mM L-glutamine (Sigma Chemical Co., St Louis, Mo.), penicillin ([…]), streptomycin ([…]), amphotericin B (2×10^−5 M) (Sigma Chemical Co.), and heparin (20 IU/mL, Gibco, Grand Island, N.Y.), all in a fully humidified atmosphere at 37° C. and 5% CO2. The following elements were added where noted: • 1. […] Endothlial Growth factors: Epidermal growth factor (EGF 10 ng/ml, Sigma Chemical Co.), basic Fibroblast growth factor (bFGF 20 ng/ml, Sigma Chemical Co.) incubated in a serum free medium (SFM) for 48 hr. • 3. Stress mimicking conditions: Hydrocortisone sodium succinate (Abic Ltd., Netanya, Israel) at concentrations equivalent to normal, intermediate and stress serum cortisol levels (0.1, 0.6 and 1.2 μM, respectively (De Vroede et al., Arch. Des. […] Antisense oligonucleotides: 3′-terminal 2′-O-Methylated 15- and 20-mer oligodeoxynucleotides in the antisense (AS) orientation, targeted against the common sequence domain in human AChEmRNA and BuChE mRNA, as control, […], as detailed elsewhere [Grisaru et al. (1999b) Mol. Cell. Biol. 19, 788–95]. • 5. AChE C-terminal peptides: The following C-terminal peptides of the AChE synaptic (ASP, also denoted SEQ ID: No. 2) and readthrough (ARP, also denoted SEQ ID: No. 1) isoforms were synthesized using a 433A peptide synthesizer (PE Applied Biosystems, Inc., Norwalk, Conn.). • ASP: 1-[…]-40, also denoted as SEQ ID: No. 2. • ARP: 1-[…]-26, also denoted as SEQ ID: No. 1.
# Culture Analyses: Twenty-four hr liquid cultures served for cytochemical staining, in situ hybridization, and cell proliferation assay by 5-bromo-2′-deoxy-Uridine (BrdU) incorporation [Grisaru et al. (1999b) id ibid.]. Twenty-eight day liquid cultures were sampled every 6–8 days for viable cell counting (using trypan blue dye exclusion), cell phenotyping (CD34^+, CD33^+ and CD41^+ quantification using flow cytometry, with CD34-PE, CD33-FITC (Immunotech/Coulter, Hialeah, Fla.), CD41-FITC (Immunoquality Products, Groningen, Netherlands) and CD45-FITC monoclonal antibodies), and growth of progenitor colony (granulocyte-macrophage and megakaryocytic), using previously described techniques (Pick et al. (1998) id ibid.). […] 11, 1049–57]. Nuclear staining w with 4′,6-diamidino-2- phenylindole [DAPI, see e.g., Peterson et al. (1999) Genetics 152, 427–439].
# [3] = system: CD34^+ cells; assay: BrdU incorporation into CD34+ cells (cell proliferation); type: cell-based, human; details: GM-CSF alone, 16 hr
# Description: Cell Source: UCB was collected, following informed consent of the parents and with the approval of the Sourasky Medical Center Ethics Committee, as previously described [Grisaru et al. (1999a) Am. J. Obstet. Gynecol, 180, 1240–1243]. Following 1:1 (v/v) dilution in Iscove's modified Dulbecco medium (IMDM, Beit Haemek, Israel), mononuclear cells were separated using 3% gelatin (Difco, Detroit, Mich.) and Ficoll-Hypaque gradients (<1.077 g/ml; Pharmacia, Uppsala, Sweden) [Pick et al. (1998) Br. J. Haematol. 103, 639–50]. CD34^+ cells were enriched using CD34 immunoglobulin-coated magnetic beads (CD34 progenitor cell selection system, Dynal, Norway).CD34^+ cells analysis was performed by flow cytometry (Becton Dickinson Immunocytochemistry System Inc., San Jose, Calif.), using CD34-PE (Becton Dickinson Immunocytometry System, Inc.) and CD45-FITC (Dako, Glostrup, Denmark) monoclonal antibodies. […] Liquid Cultures: UCB CD34^+ cells were set for liquid cultures at a concentration of 10^5/mL in IMDM, containing 10% autologous plasma, 2 mM L-glutamine (Sigma Chemical Co., St Louis, Mo.), penicillin ([…]), streptomycin ([…]), amphotericin B (2×10^−5 M) (Sigma Chemical Co.), and heparin (20 IU/mL, Gibco, Grand Island, N.Y.), all in a fully humidified atmosphere at 37° C. and 5% CO2. The following elements were added where noted: • 1. Hematopoietic growth factors: Interleukin 3 (IL3, 5 ng/mL, Immunex, Seattle, Wash.), interleukin 6 (IL6, 50 ng/mL, R&D Systems, Minneapolis, Minn.), TPO (1 ng/mL, R&D Systems), stem cell factor (SCF, 10 ng/mL, R&D Systems), FLT-3 ligand (FLT3, 50 ng/mL, R&D Systems), granulocyte-macrophage colony stimulating factor (GM-CSF, 50 ng/mL, Biogenesis Ltd, Bournemouth, UK) and combinations of the above, for 24 hr to 28 days (supplemented every 4 days). • 2. […] AChE C-terminal peptides: The following C-terminal peptides of the AChE synaptic (ASP, also denoted SEQ ID: No. 2) and readthrough (ARP, also denoted SEQ ID: No. 1) isoforms were synthesized using a 433A peptide synthesizer (PE Applied Biosystems, Inc., Norwalk, Conn.). • ASP: 1-[…]-40, also denoted as SEQ ID: No. 2. • ARP: 1-[…]-26, also denoted as SEQ ID: No. 1.
# […] Twenty-eight day liquid cultures were sampled every 6–8 days for viable cell counting (using trypan blue dye exclusion), cell phenotyping (CD34^+, CD33^+ and CD41^+ quantification using flow cytometry, with CD34-PE, CD33-FITC (Immunotech/Coulter, Hialeah, Fla.), CD41-FITC (Immunoquality Products, Groningen, Netherlands) and CD45-FITC monoclonal antibodies), and growth of progenitor colony (granulocyte-macrophage and megakaryocytic), using previously described techniques (Pick et al. (1998) id ibid.). […]
# [4] = system: CD34^+ cells; assay: Viable cell expansion in CD34+ liquid cultures (trypan blue exclusion); type: cell-based, human; details: day 14; seeded at 50,000 cells/well; ARP 2 nM, cortisol 1.2 μM, ASP 2 nM, SCF 50 ng/ml, AS1 20 pM, PBAN 2 nM
# Description: Cell Source: UCB was collected, following informed consent of the parents and with the approval of the Sourasky Medical Center Ethics Committee, as previously described [Grisaru et al. (1999a) Am. J. Obstet. Gynecol, 180, 1240–1243]. Following 1:1 (v/v) dilution in Iscove's modified Dulbecco medium (IMDM, Beit Haemek, Israel), mononuclear cells were separated using 3% gelatin (Difco, Detroit, Mich.) and Ficoll-Hypaque gradients (<1.077 g/ml; Pharmacia, Uppsala, Sweden) [Pick et al. (1998) Br. J. Haematol. 103, 639–50]. CD34^+ cells were enriched using CD34 immunoglobulin-coated magnetic beads (CD34 progenitor cell selection system, Dynal, Norway).CD34^+ cells analysis was performed by flow cytometry (Becton Dickinson Immunocytochemistry System Inc., San Jose, Calif.), using CD34-PE (Becton Dickinson Immunocytometry System, Inc.) and CD45-FITC (Dako, Glostrup, Denmark) monoclonal antibodies. […] Liquid Cultures: UCB CD34^+ cells were set for liquid cultures at a concentration of 10^5/mL in IMDM, containing 10% autologous plasma, 2 mM L-glutamine (Sigma Chemical Co., St Louis, Mo.), penicillin ([…]), streptomycin ([…]), amphotericin B (2×10^−5 M) (Sigma Chemical Co.), and heparin (20 IU/mL, Gibco, Grand Island, N.Y.), all in a fully humidified atmosphere at 37° C. and 5% CO2. The following elements were added where noted: • 1. Hematopoietic growth factors: Interleukin 3 (IL3, 5 ng/mL, Immunex, Seattle, Wash.), interleukin 6 (IL6, 50 ng/mL, R&D Systems, Minneapolis, Minn.), TPO (1 ng/mL, R&D Systems), stem cell factor (SCF, 10 ng/mL, R&D Systems), FLT-3 ligand (FLT3, 50 ng/mL, R&D Systems), granulocyte-macrophage colony stimulating factor (GM-CSF, 50 ng/mL, Biogenesis Ltd, Bournemouth, UK) and combinations of the above, for 24 hr to 28 days (supplemented every 4 days). • 2. Endothlial Growth factors: Epidermal growth factor (EGF 10 ng/ml, Sigma Chemical Co.), basic Fibroblast growth factor (bFGF 20 ng/ml, Sigma Chemical Co.) incubated in a serum free medium (SFM) for 48 hr. • 3. […] AChE C-terminal peptides: The following C-terminal peptides of the AChE synaptic (ASP, also denoted SEQ ID: No. 2) and readthrough (ARP, also denoted SEQ ID: No. 1) isoforms were synthesized using a 433A peptide synthesizer (PE Applied Biosystems, Inc., Norwalk, Conn.). • ASP: 1-[…]-40, also denoted as SEQ ID: No. 2. • ARP: 1-[…]-26, also denoted as SEQ ID: No. 1. […]
# [5] = 24-hr post i.p. injection of 34 nmol/Kg ARP, FVB/N adult male mice
# [6] = day 14, seeded at 50,000 cells/well, ARP 2 nM, cortisol 1.2 μM, ASP 2 nM, SCF 50 ng/ml, AS1 20 pM, PBAN 2 nM
substance,measurement,setting,value
GMQGPAGSGWEEGSGSPPGVTPLFSP [ARP],seminal gland wt.,[1]; [5],10.79 ± 1.08 mg/gr weight
same,sperm counts,[1]; [5],5.3 ± 1.2 cells/epididimis × 10^−6
same,"sperm, motile",[1]; [5],5 ± 1.7 % of total sperm cells
same,sperm cell motility,[1]; ARP injected mice,significantly reduced motility
same,sperm counts compared with untreated FVB/N mice,[1]; ARP-injected mice,lower
TPO,MK (CD41^+) fold expansion,[2],3.93 ± 3.56 fold
same,Myeloid (CD33^+) fold expansion,[2],3.51 ± 2.23 fold
GM-CSF,BrdU incorporation into CD34+ cells,[3],increased
same,MK (CD41^+) fold expansion,[2],14.50 fold
same,Myeloid (CD33^+) fold expansion,[2],1.35 fold
SCF,Total viable cells,[4],118.0 cells per culture × 10^−3
same,MK (CD41^+) fold expansion,[2],0.30 ± 0.21 fold
same,Myeloid (CD33^+) fold expansion,[2],3.90 fold
same,CD33^+ (early myeloids),[2]; [6],69.0 cells per culture × 10^−3
same,CD33^+ and CD15^+ (total myeloids),[2]; [6],72.0 cells per culture × 10^−3
same,CD34^+ (early progenitors),[2]; [6],6.3 cells per culture × 10^−3
same,CD41^+ (megakaryocytes),[2]; [6],2.6^b cells per culture × 10^−3
